B1: human prolactin (protein, UniProt P01236 29-227, looked up)
Prolactin: LPICPGGAARCQVTLRDLFDRAVVLSHYIHNLSSEMFSEFDKRYTHGRGFITKAINSCHTSSLATPEDKEQAQQMNQKDFLSLIVSILRSWNEPLYHLVTEVRGMQEAPEAILSKAVEIEEQTKRLLEGMELIVSQVHPETKENEIYPVWSGLPSLQMADEESRLSAYYNLLHCLRRDSHKIDNYLKLLKCRIIHNNNC

Key:
[1] = test system: MCF-7, SKBR3 and McNeuA breast cancer cell lines; assay: ALDH testing, cell lines of Example 2; assay type: cell-based, human and mouse; conditions: Example 2 cell lines; 12, 24 and 48 hours of treatment
Excerpt: (§1) Three breast cancer cell lines are used in this assay: two human breast cancer cell lines, MCF-7 (ER^high, HER2^low) and SKBR3 (ER^low, HER2^high), and one mouse breast cancer cell line that was established from HER2/neu transgenic mice (McNeuA). After establishing the dose response curves, all three cell lines will be used for two in vitro studies. The cells will be treated with a standard chemotherapeutic drug, doxorubicin (Dox) alone (Max or IC50) or in combination with hPRL (Max or IC50).
Next, the CSC population is measured by two sets of the stem cell markers, aldehyde dehydrogenase (ALDH) and CD44^high/CD24^low after a 12-, 24- and 48 hours of treatment using flow cytometry methods as described in Example 2.

[2] = test system: MCF-7, SKBR3 and McNeuA breast cancer cell lines; assay: Tumorsphere evaluation, all cell lines tested (Example 2); assay type: cell-based, human and mouse; conditions: 7 and 14 days of treatment
Excerpt: as §1
First, the functional response of CSCs is measured by standard colony formation and tumorsphere formation assays after 7- and 14 days of treatment using methods described above in Example 2.

[3] = test system: MCF-7 human breast cancer cells; assay: Tumorsphere formation assay, MCF-7 (Example 1); assay type: cell-based; conditions: 11 days of treatment, hPRL 0.5 μg/ml, Dox 25 ng/ml, tumorspheres greater than 100 μm, FIG. 1
Experimental: Tumor sphere formation assay and aldehyde dehydrogenase (ALDH) activity measured by flow cytometry were used to measure the functional response of the CSCs after 11 days of co-treatment with human prolactin (hPRL) and doxorubicin (Dox). MCF-7 and MMTV-neu cells were cultured by standard methods known in the art. Briefly, unsorted MCF-7 cells were plated in ultra-low attachment plate (Corning Inc, Corning, N.Y.) at a density of 5000 cells/ml in serum-free Dulbecco's Modified Eagle Medium—F12 (DMEM-F12) supplemented with 0.4% bovine serum albumin (BSA), 10 ng/mL of basic fibroblast growth factor (bFGF), 20 ng/ml of epidermal growth factor (EGF), 5 μg/ml of insulin (all from Sigma-Aldrich Co., St. Louis, Mo.). Tumorspheres were allowed to form in 37° C. with 5% CO2 for 10 days. Culture medium were replaced two times in the course of treatment. Similar culturing method was applied to MMTV-neu cells in the exception of MMTV-neu cells were plated at a density of 200,000 cells/ml. Cells were treated with 0.5 μg/ml of hPRL, 25 ng/ml of doxorubicin or a combination of 0.5 μg/ml hRPL and 25 ng/ml doxorubicin. After 11 days of treatment, the cells were analyzed for tumorsphere formation and ALDH activity levels. Tumorsphere formation was determined by spheres formed in the culture medium. Spheres number were counted manually under four random fields of the 24-well at 40× magnification.

[4] = test system: MCF-7 human breast cancer cells; assay: ALDH activity by flow cytometry (ALDEFLUOR), MCF-7 tumorspheres (Example 1); assay type: cell-based; conditions: 11 days, hPRL 0.5 μg/ml, Dox 25 ng/ml, FIG. 2
Experimental: (§2) MCF-7 human breast cancer cells and primary mouse breast cancer cells isolated from MMTV-neu transgenic mice were used in this study. Tumor sphere formation assay and aldehyde dehydrogenase (ALDH) activity measured by flow cytometry were used to measure the functional response of the CSCs after 11 days of co-treatment with human prolactin (hPRL) and doxorubicin (Dox).
(§3) Cells were treated with 0.5 μg/ml of hPRL, 25 ng/ml of doxorubicin or a combination of 0.5 μg/ml hRPL and 25 ng/ml doxorubicin. After 11 days of treatment, the cells were analyzed for tumorsphere formation and ALDH activity levels.
Accordingly, to determine the number of CSCs in a tumor sample, ALDH activity levels were determined by the ALDEFLUOR kit (StemCell Technologies, Vancouver, BC, Canada). Briefly, tumorspheres were dissociated by trypsin (Invitrogen, Carlsbad, Calif.) at 37° C. for 5 minutes and resuspended in ALDEFLUOR assay buffer containing ALDH substrate (BODIPY-aminoacetaldehyde, 1 μM per 1×10^6 cells). An aliquot of the cells were treated with 7.5 μM of diethylaminobenzaldehyde (DEAB), an inhibitor of ALDH, as the negative control. Samples were incubated in 37° C. with 5% CO2 for 45 minutes and analyzed by FACSCalibur (Becton Dickinson Co., Franklin Lakes, N.J.). The ALDH-positive gate was established using the negative control treated with DEAB.

McNeuA implanted mice = assay: In vivo combination therapy on McNeuA implanted FVB mice (Example 2); design: species or system mouse; conditions: four-week regimen, weekly Dox with or without daily hPRL injection; for Time to relapse: X, Y are placeholders
Excerpt: Finally, the efficacy of the treatment is examined in vivo by implanting McNeuA cell into FVB mice. Two weeks after tumor cell inoculation, a four-week treatment regimen is applied (weekly Dox with or without daily hPRL injection). Tumor growth and the time to relapse is monitored and compared among groups.

[5] = test system: primary mouse breast cancer cells isolated from MMTV-neu transgenic mice; assay: Tumorsphere formation assay, MMTV-neu primary cells (Example 1); assay type: cell-based; conditions: 11 days, hPRL 0.5 μg/ml, ±0.34, p<0.001, data not shown
Experimental: as §2
MCF-7 and MMTV-neu cells were cultured by standard methods known in the art. Briefly, unsorted MCF-7 cells were plated in ultra-low attachment plate (Corning Inc, Corning, N.Y.) at a density of 5000 cells/ml in serum-free Dulbecco's Modified Eagle Medium—F12 (DMEM-F12) supplemented with 0.4% bovine serum albumin (BSA), 10 ng/mL of basic fibroblast growth factor (bFGF), 20 ng/ml of epidermal growth factor (EGF), 5 μg/ml of insulin (all from Sigma-Aldrich Co., St. Louis, Mo.). Tumorspheres were allowed to form in 37° C. with 5% CO2 for 10 days. Culture medium were replaced two times in the course of treatment. […]
as §3
Tumorsphere formation was determined by spheres formed in the culture medium. Spheres number were counted manually under four random fields of the 24-well at 40× magnification.

Row | Molecule | number of ALDH-negative cells [1] | number of ALDH-positive cells [1] | tumorsphere formation (number and size of tumorspheres) [2] | number of tumorspheres formed / tumorspheres formation [3] | number of ALDH+ cells (ALDH positive cell population) [4] | number of ALDH− cells [4] | Tumor size (McNeuA implanted mice) | Time to relapse (McNeuA implanted mice) | increase of tumorspheres formation [5] [fold]
1 | COc1cccc2c1C(=O)c1c(O)c3c(c(O)c1C2=O)C[C@@](O)(C(=O)CO)C[C@@H]3O[C@H]1C[C@H](N)[C@H](O)[C@H](C)O1 [Dox, doxorubicin] | reduced | unaffected | negligible affect | negligible effect | no significant change | decreased | decrease | X days after last treatment | –
2 | B1 | negligible affect | negligible affect | negligible affect | slightly increased | – | – | increase comparable to “no | no remission | 2.3
